Assay results as given in PubChem BioAssay (NCI).
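In this assay, cells in 96-well plates receive the compound at five concentrations for 48 hours. Endpoints are linearly interpolated between the surrounding concentrations. Here, GI50 denotes the concentration required for 50% inhibition of growth. TGI marks complete inhibition of growth.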

How the values were obtained:
Assay in all cases: NCI anticancer screen, dose series, 48 h
NCI-H226 lung = system: NCI-H226 lung
OVCAR-8 ovarian = system: OVCAR-8 ovarian
MOLT-4 leukemia = system: MOLT-4 leukemia
U251 CNS = system: U251 CNS
NCI-H460 lung = system: NCI-H460 lung
COLO 205 colon = system: COLO 205 colon
SK-MEL-5 melanoma = system: SK-MEL-5 melanoma
A498 renal = system: A498 renal
BT-549 breast = system: BT-549 breast
RPMI-8226 leukemia = system: RPMI-8226 leukemia
A549 NSCLC = system: A549 NSCLC
HOP-62 NSCLC = system: HOP-62 NSCLC
HS 578T breast = system: HS 578T breast
SF-539 CNS = system: SF-539 CNS
RXF 393 renal = system: RXF 393 renal
PC-3 prostate = system: PC-3 prostate
SK-MEL-28 melanoma = system: SK-MEL-28 melanoma
NCI-H522 lung = system: NCI-H522 lung
UACC-62 melanoma = system: UACC-62 melanoma
HOP-92 NSCLC = system: HOP-92 NSCLC
SF-268 CNS = system: SF-268 CNS
SNB-75 CNS = system: SNB-75 CNS
SW-620 colon = system: SW-620 colon
HCT-116 colon = system: HCT-116 colon
LOX IMVI melanoma = system: LOX IMVI melanoma
CAKI-1 renal = system: CAKI-1 renal
SNB-19 CNS = system: SNB-19 CNS
M14 melanoma = system: M14 melanoma
SN12C renal = system: SN12C renal
EKVX NSCLC = system: EKVX NSCLC
UACC-257 melanoma = system: UACC-257 melanoma
SF-295 CNS = system: SF-295 CNS
SK-OV-3 ovarian = system: SK-OV-3 ovarian
KM12 colon = system: KM12 colon
OVCAR-5 ovarian = system: OVCAR-5 ovarian
HT29 colon = system: HT29 colon
HCC-2998 colon = system: HCC-2998 colon
DU-145 prostate = system: DU-145 prostate
HL-60(TB) leukemia = system: HL-60(TB) leukemia
IGROV1 ovarian = system: IGROV1 ovarian
MDA-MB-435 = system: MDA-MB-435
ACHN renal = system: ACHN renal
NCI-H23 lung = system: NCI-H23 lung
OVCAR-4 ovarian = system: OVCAR-4 ovarian
SR leukemia = system: SR leukemia
OVCAR-3 ovarian = system: OVCAR-3 ovarian
UO-31 renal = system: UO-31 renal
MDA-MB-231 breast = system: MDA-MB-231 breast
CCRF-CEM leukemia = system: CCRF-CEM leukemia
HCT-15 colon = system: HCT-15 colon
TK-10 renal = system: TK-10 renal
MCF7 breast = system: MCF7 breast
MALME-3M melanoma = system: MALME-3M melanoma
NCI/ADR-RES ovarian = system: NCI/ADR-RES ovarian
K-562 leukemia = system: K-562 leukemia
SK-MEL-2 melanoma = system: SK-MEL-2 melanoma
786-0 renal = system: 786-0 renal

C=C1C(=O)O[C@H]2[C@H]1CC/C(COC(=O)/C=C/C(=O)OC/C1=C/CC[C@@]3(C)O[C@H]3[C@H]3OC(=O)C(=C)[C@@H]3CC1)=C\CC[C@@]1(C)O[C@@H]21
GI50 (NCI-H226 lung): 1420 nM
TGI (NCI-H226 lung): 3110 nM
GI50 (OVCAR-8 ovarian): 1530 nM
TGI (OVCAR-8 ovarian): 3050 nM
GI50 (MOLT-4 leukemia): 307 nM
TGI (MOLT-4 leukemia): 1400 nM
GI50 (U251 CNS): 2820 nM
TGI (U251 CNS): 10800 nM
GI50 (NCI-H460 lung): 5200 nM
TGI (NCI-H460 lung): > 100000 nM
GI50 (COLO 205 colon): 351 nM
TGI (COLO 205 colon): 1240 nM
GI50 (SK-MEL-5 melanoma): 4340 nM
TGI (SK-MEL-5 melanoma): > 100000 nM
GI50 (A498 renal): > 100000 nM
TGI (A498 renal): > 100000 nM
GI50 (BT-549 breast): 1580 nM
TGI (BT-549 breast): 4410 nM
GI50 (RPMI-8226 leukemia): 868 nM
TGI (RPMI-8226 leukemia): 4000 nM
GI50 (A549 NSCLC): > 100000 nM
TGI (A549 NSCLC): > 100000 nM
GI50 (HOP-62 NSCLC): 5430 nM
TGI (HOP-62 NSCLC): > 100000 nM
GI50 (HS 578T breast): 3220 nM
TGI (HS 578T breast): > 100000 nM
GI50 (SF-539 CNS): 2500 nM
TGI (SF-539 CNS): 7860 nM
GI50 (RXF 393 renal): 297 nM
TGI (RXF 393 renal): 713 nM
GI50 (PC-3 prostate): 3020 nM
TGI (PC-3 prostate): > 100000 nM
GI50 (SK-MEL-28 melanoma): 1560 nM
TGI (SK-MEL-28 melanoma): 4130 nM
GI50 (NCI-H522 lung): 171 nM
TGI (NCI-H522 lung): 374 nM
GI50 (UACC-62 melanoma): 1210 nM
TGI (UACC-62 melanoma): 2680 nM
GI50 (HOP-92 NSCLC): 549 nM
TGI (HOP-92 NSCLC): 1800 nM
GI50 (SF-268 CNS): 3190 nM
TGI (SF-268 CNS): > 100000 nM
GI50 (SNB-75 CNS): 3470 nM
TGI (SNB-75 CNS): 66900 nM
GI50 (SW-620 colon): 338 nM
TGI (SW-620 colon): 1110 nM
GI50 (HCT-116 colon): 253 nM
TGI (HCT-116 colon): 756 nM
GI50 (LOX IMVI melanoma): 1070 nM
TGI (LOX IMVI melanoma): 2400 nM
GI50 (CAKI-1 renal): 1080 nM
TGI (CAKI-1 renal): 3430 nM
GI50 (SNB-19 CNS): 5490 nM
TGI (SNB-19 CNS): > 100000 nM
GI50 (M14 melanoma): 1260 nM
TGI (M14 melanoma): 3890 nM
GI50 (SN12C renal): 1490 nM
TGI (SN12C renal): 4040 nM
GI50 (EKVX NSCLC): 2220 nM
TGI (EKVX NSCLC): > 100000 nM
GI50 (UACC-257 melanoma): 1640 nM
TGI (UACC-257 melanoma): 3140 nM
GI50 (SF-295 CNS): 6770 nM
TGI (SF-295 CNS): > 100000 nM
GI50 (SK-OV-3 ovarian): > 100000 nM
TGI (SK-OV-3 ovarian): > 100000 nM
GI50 (KM12 colon): 5190 nM
TGI (KM12 colon): > 100000 nM

c1ccc2c(c1)ccc1c3ccccc3c(NCCCCN3CCCCC3)cc21
GI50 (A549 NSCLC): 3100 nM
TGI (A549 NSCLC): > 100000 nM
GI50 (OVCAR-5 ovarian): 1690 nM
TGI (OVCAR-5 ovarian): 3200 nM
GI50 (HT29 colon): 3500 nM
TGI (HT29 colon): > 100000 nM
GI50 (HCC-2998 colon): 1750 nM
TGI (HCC-2998 colon): 3360 nM
GI50 (KM12 colon): 1750 nM
TGI (KM12 colon): 3250 nM

CC[C@]1(O)CC2CN(CCc3c([nH]c4ccccc34)[C@@](C(=O)OC)(c3cc4c(cc3OC)N(C)[C@H]3[C@@](O)(C(=O)OC)[C@H](OC(C)=O)[C@]5(CC)C=CCN6CC[C@]43[C@@H]65)C2)C1 (stereo not given in full)
GI50 (NCI-H226 lung): < 5 nM
TGI (NCI-H226 lung): 148 nM
GI50 (OVCAR-8 ovarian): < 5 nM
TGI (OVCAR-8 ovarian): > 34600 nM
GI50 (DU-145 prostate): < 5 nM
TGI (DU-145 prostate): 28.2 nM
GI50 (MOLT-4 leukemia): < 5 nM
TGI (MOLT-4 leukemia): 721 nM
GI50 (U251 CNS): < 5 nM
TGI (U251 CNS): 6500 nM
GI50 (HL-60(TB) leukemia): < 5 nM
TGI (HL-60(TB) leukemia): < 5 nM
GI50 (NCI-H460 lung): < 5 nM
TGI (NCI-H460 lung): 5800 nM
GI50 (IGROV1 ovarian): 5.17 nM
TGI (IGROV1 ovarian): > 30000 nM
GI50 (COLO 205 colon): < 5 nM
TGI (COLO 205 colon): 5.11 nM
GI50 (SK-MEL-5 melanoma): < 5 nM
TGI (SK-MEL-5 melanoma): 60.7 nM
GI50 (MDA-MB-435): < 5 nM
TGI (MDA-MB-435): < 5 nM
GI50 (A498 renal): 5.47 nM
TGI (A498 renal): 99.4 nM
GI50 (BT-549 breast): 5.38 nM
TGI (BT-549 breast): 595 nM
GI50 (RPMI-8226 leukemia): < 5 nM
TGI (RPMI-8226 leukemia): 8480 nM
GI50 (ACHN renal): 76 nM
TGI (ACHN renal): > 50000 nM
GI50 (A549 NSCLC): < 5 nM
TGI (A549 NSCLC): > 50000 nM
GI50 (OVCAR-5 ovarian): 10 nM
TGI (OVCAR-5 ovarian): > 47200 nM
GI50 (HOP-62 NSCLC): < 5 nM
TGI (HOP-62 NSCLC): 9890 nM
GI50 (HS 578T breast): < 5 nM
TGI (HS 578T breast): 10200 nM
GI50 (NCI-H23 lung): < 5 nM
TGI (NCI-H23 lung): 26700 nM
GI50 (SF-539 CNS): < 5 nM
TGI (SF-539 CNS): 293 nM
GI50 (PC-3 prostate): < 5 nM
TGI (PC-3 prostate): 12300 nM
GI50 (NCI-H522 lung): < 5 nM
TGI (NCI-H522 lung): 5.36 nM
GI50 (UACC-62 melanoma): < 5 nM
TGI (UACC-62 melanoma): 8910 nM
GI50 (OVCAR-4 ovarian): 30.3 nM
TGI (OVCAR-4 ovarian): > 50000 nM
GI50 (HOP-92 NSCLC): < 5 nM
TGI (HOP-92 NSCLC): 119 nM
GI50 (SF-268 CNS): < 5 nM
TGI (SF-268 CNS): 8080 nM
GI50 (SNB-75 CNS): < 5 nM
TGI (SNB-75 CNS): 5050 nM
GI50 (SR leukemia): < 5 nM
GI50 (OVCAR-3 ovarian): < 5 nM
TGI (OVCAR-3 ovarian): < 5 nM
GI50 (HT29 colon): < 5 nM
TGI (HT29 colon): 5180 nM
GI50 (SW-620 colon): < 5 nM
TGI (SW-620 colon): 8540 nM
GI50 (HCT-116 colon): < 5 nM
TGI (HCT-116 colon): 269 nM
GI50 (UO-31 renal): 511 nM
TGI (UO-31 renal): 15900 nM
GI50 (MDA-MB-231 breast): < 5 nM
TGI (MDA-MB-231 breast): 417 nM
GI50 (CCRF-CEM leukemia): < 5 nM
TGI (CCRF-CEM leukemia): 18500 nM
GI50 (HCC-2998 colon): < 5 nM
TGI (HCC-2998 colon): 19.5 nM
GI50 (LOX IMVI melanoma): < 5 nM
TGI (LOX IMVI melanoma): 8010 nM
GI50 (CAKI-1 renal): 80.4 nM
TGI (CAKI-1 renal): 21600 nM
GI50 (HCT-15 colon): 58.8 nM
TGI (HCT-15 colon): > 21300 nM
GI50 (TK-10 renal): 148 nM
TGI (TK-10 renal): 13900 nM
GI50 (SNB-19 CNS): < 5 nM
TGI (SNB-19 CNS): 15600 nM
GI50 (M14 melanoma): < 5 nM
TGI (M14 melanoma): 41.7 nM
GI50 (SN12C renal): < 5 nM
TGI (SN12C renal): > 37300 nM
GI50 (MCF7 breast): < 5 nM
TGI (MCF7 breast): 6070 nM
GI50 (EKVX NSCLC): 9.56 nM
TGI (EKVX NSCLC): > 50000 nM
GI50 (MALME-3M melanoma): < 5 nM
TGI (MALME-3M melanoma): 11800 nM
GI50 (NCI/ADR-RES ovarian): 91.2 nM
TGI (NCI/ADR-RES ovarian): 1060 nM
GI50 (SF-295 CNS): < 5 nM
TGI (SF-295 CNS): 6030 nM
GI50 (K-562 leukemia): < 5 nM
TGI (K-562 leukemia): 2260 nM
GI50 (SK-MEL-2 melanoma): < 5 nM
TGI (SK-MEL-2 melanoma): 6950 nM
GI50 (SK-OV-3 ovarian): < 5 nM
TGI (SK-OV-3 ovarian): 9.77 nM
GI50 (786-0 renal): < 5 nM
TGI (786-0 renal): 3130 nM
GI50 (KM12 colon): < 5 nM
TGI (KM12 colon): 141 nM
